In patent publication US20100022582A1, “Tetrahydroisoquinoline Compound and Medicinal Use Thereof” (priority 2005, published 2010):

How the values were obtained:
[1] = system: THP-1 cell-derived macrophage; experiment: Cholesterol ester accumulation-inhibitory activity (THP-1 cell-derived macrophage foam cell formation); format: cell-based; conditions: THP-1 macrophage, acetyl LDL, 3 days
Method: THP-1 cells (DAINIPPON PHARMACEUTICAL CO., LTD.) were subcultured in RPMI-1640 medium containing 10% fetal calf serum (FBS), and cells at 6-13th passage after purchase were used. The cells were suspended in FBS-containing RPMI-1640 medium to give a suspension having a concentration of 4×10^5 cells/mL. The cell suspension was seeded on 12-well microplate by 1 mL, and treated with phorbol 12-myristate 13-acetate (PMA, 200 nM) as a differentiation inducer into macrophage. Then, acetyl LDL (400 μg/mL) separately prepared from LDL derived from plasma of a rabbit with genetic hyperlipidemia (KHC rabbit, Japan Laboratory Animals Inc.) was added. A test compound further dissolved in dimethyl sulfoxide (DMSO) and diluted with FBS-containing RPMI-1640 medium and a control solvent were applied. After cultivation in a carbon dioxide incubator for 3 days, the cells were washed with phosphate-buffered saline (pH 7.0), and the lipid was extracted with hexane-isopropanol (3:2). In addition, the cells were lysed with 1N-NaOH, and the protein content was measured. Free cholesterol and cholesterol ester in the lipid extraction sample were measured according to the method of Kunitomo et al. [Japan. J. Pharmacol., 34, 153-158 (1984)]. Cholesterol esters in the control cells and the cells treated with the test compound were compared, and the cholesterol ester accumulation inhibitory rate of the test compound was calculated.

[2] = system: cholesterol secretion from the liver; experiment: Mouse liver lipid secretion-inhibitory activity (Triton WR-1339 method); format: in vivo, Slc: ICR mice; conditions: (10 mg)/kg orally; 3 hr after Triton WR-1339; mice
Method: About 5-week-old male Slc: ICR mice (Japanese SLC) were preliminarily bred for 1 week by feeding only in the daytime (9:00-18:00). During this period, the mice were-allowed to freely take tap water even during night. The mice were divided into a control group and a test compound group (6 mice per group) so that the average and standard deviation of the body weight would be almost the same. Blood (about 80 μL) was drawn from the orbital venous plexus under anesthesia using a glass capillary, and a test compound solution (10 mL/kg) obtained by previously suspending the compound in 5% gum arabic solution at 30 min after the blood sampling was orally administered. At 30 min after the administration, Triton WR-1339 (60 mg/mL) solution previously prepared with physiological saline was administered from the tail vein at a dose of 5 mL/kg. Blood was drawn again from the orbital venous plexus at 3 hr after the administration of Triton WR-1339. Plasma was separated from the blood taken and the total plasma cholesterol (TC) was measured using a commercially available measurement kit (Wako Pure Chemical Industries, Ltd.). The changes in the blood concentration over 3 hr after the Triton WR-1339 administration were calculated and taken as the cholesterol secretion rate from the liver. The secretion rates were compared between the control group and the test compound group, and the cholesterol secretion inhibitory rate by the test compound was calculated.

[3] = Stable radical elimination action (DPPH); conditions: 0.1 mM DPPH
Method: 0.1 mM Diphenyl-2-picrylhydrazyl (DPPH) acetonitrile (CH3CN) solution (3 mL) was placed in a glass test tube, and a DMSO solution of a test compound was added at a 1% dose (30 μL). As a control, 0.1 mM DPPH CH3CN solution (3 mL) containing DMSO (30 μL) was used and for a blank test, CH3CN (3 mL) containing DMSO (30 μL) was used. After standing the solutions at room temperature for 60 min (20 min for Examples 69, 72 and 73), the absorbance at 517 nm was measured by a spectrophotometer. A stable radical inhibitory rate when control was 100% was calculated from [(absorbance of test substance−absorbance of blank test)÷(absorbance of control−absorbance of blank test)].

liver ACAT = experiment: ACAT inhibitory activity (rabbit liver microsome, cholesteryl oleate production); format: biochemical, Japanese white rabbits; conditions: 37° C. for 20 min
Method: Male Japanese white rabbits (body weight 2-2.5 kg) were bred on 100 g of a high cholesterol feed (feed added with cholesterol 1%, CLEA Japan, Inc.) daily for 4 weeks and sacrificed by exsanguination under anesthesia. The liver was removed, homogenated and centrifuged at 10,000 rpm and 4° C. for 15 min. The obtained supernatant was further centrifuged at 41,000 rpm and 4° C. for 60 min to give a microsome fraction. To a 0.15 M phosphate buffer were added the microsome suspension as an enzyme specimen, dimethyl sulfoxide (DMSO) or a solution (3 μL) of a test compound in DMSO and [1-14C]-oleoyl-CoA to be a reaction substrate to the total amount of 300 μL. After incubation at 37° C. for 20 min, a mixed solution of chloroform-methanol was added to quench the reaction. Water was added thereto and mixed, and the chloroform layer was separated. The solvent was evaporated to dryness and the residue was redissolved in n-hexane. The resulting solution was subjected to thin layer chromatography using a silica gel plate. The spot of cholesteryl oleate on the silica gel plate was scraped and quantified on a liquid scintillation counter. The ACAT inhibitory activity of the test compound is shown in cholesteryl oleate production inhibitory rate (%) [level of inhibition of cholesteryl oleate production as compared to the control].

[4] = Oral administration experiment (plasma concentration); format: in vivo; conditions: (10 mg)/kg orally, male SD rats, plasma 0.5-6 hr
Method: The test compound (10 mg)/kg suspended in 5% gum arabic solution was forcedly administered orally to male SD rats (body weight 200-250 g). At 0.5, 1, 2, 4, 6 hr after administration, blood was drawn without anesthesia, and heparin plasma was separated by a conventional method. The concentration of the test compound in the plasma was measured by high performance liquid chromatography.

[5] = system: brain homogenate lipid peroxidation; experiment: Lipid peroxidation-inhibitory action (brain homogenate, MDA); format: biochemical, SD rat; conditions: rat brain homogenate, 37° C. for 30 min
Method: The brain was removed from male SD rat, and a 50 mM phosphate buffer (pH 7.4, 5-fold amount of brain weight) was added. The mixture was homogenized under ice-cooling for 30 sec, and centrifuged at 4° C., 3200 rpm for 10 min. The supernatant was diluted 5-fold with 50 mM phosphate buffer to give a brain homogenate. A test compound (10 μL) was placed in a glass test tube, the brain homogenate (1 mL) was added, and the mixture was incubated at 37° C. for 30 min. 20% Trichloroacetic acid (1 mL) was added to quench the reaction. The reaction mixture was centrifuged at room temperature, 4000 rpm for 10 min. Thiobarbituric acid (0.2 mL) was added to the supernatant (1 mL) and the mixture was heated at 95° C. for 15 min. The absorbance at 532 nm was measured, and lipid peroxide was quantified as malondialdehyde (MDA). The MDA level was compared between the control and the test compound-added sample, and the lipid peroxidation inhibitory rate was calculated.

[6] = room temperature 20 min (Examples 69, 72 and 73)

| Compound | cholesteryl ester accumulation inhibitory rate (%) (concentration: 10^−6 M) [1] | Cholesterol secretion inhibitory rate (%) (10 mg)/kg/3 hr [2] | inhibitory rate (%) (10^−4M), stable radical [3, 6] | liver ACAT inhibition rate (%) (concentration: 10^−6 M) (liver ACAT) | maximum blood concentration [4] [µg/mL] | inhibitory rate (%) (10^−4M), stable radical ([3]; room temperature for 60 min) | inhibitory rate (%) (10^−4M), lipid peroxidation [5] |
| --- | --- | --- | --- | --- | --- | --- | --- |
| CCC(C)(C)C(=O)N1Cc2cc(N(C)C)ccc2C[C@H]1C(=O)Nc1cc(C)c(O)c(C)c1C.Cl [Example 69, 7-dimethylamino-2-(2,2-dimethylbutyryl)-N-(4-hydroxy-2,3,5-trimethylphenyl)-1,2,3,4-tetrahydroisoquinoline-(3S)-carboxamide hydrochloride] | 99.4 | 31.4 | 97.0 |  |  |  |  |
| C/C=C/C=C/C(=O)N1Cc2cc(N(C)C)ccc2C[C@H]1C(=O)Nc1cc(C)c(O)c(C)c1C.Cl [Example 70, 7-dimethylamino-2-[(2E,4E)-hexadienoyl]-N-(4-hydroxy-2,3,5-trimethylphenyl)-1,2,3,4-tetrahydroisoquinoline-(3S)-carboxamide hydrochloride] |  | 23.0 |  |  |  |  |  |
| Cc1cc(NC(=O)[C@@H]2Cc3ccc(N(C)C)cc3CN2C(=O)C(C)C)c(C)c(C)c1O.Cl [Example 72, 7-dimethylamino-N-(4-hydroxy-2,3,5-trimethylphenyl)-2-isobutyryl-1,2,3,4-tetrahydroisoquinoline-(3S)-carboxamide hydrochloride] | 80.5 |  | 97.0 | 91.4 | 0.91 |  |  |
| Cc1cc(NC(=O)[C@@H]2Cc3ccc(N(C)C)cc3CN2C(=O)C(C)(C)C)c(C)c(C)c1O.Cl [Example 73, 7-dimethylamino-2-(2,2-dimethylpropionyl)-N-(4-hydroxy-2,3,5-trimethylphenyl)-1,2,3,4-tetrahydroisoquinoline-(3S)-carboxamide hydrochloride] | 91.8 | 32.9 | 97.0 | 97.7 | 0.55 |  |  |
| Cc1cc(NC(=O)[C@@H]2Cc3ccc(N4CCN(C)CC4)cc3CN2C(=O)C(C)(C)C)c(C)c(C)c1O [Example 122, 2-(2,2-dimethylpropionyl)-N-(4-hydroxy-2,3,5-trimethylphenyl)-7-(4-methylpiperazin-1-yl)-1,2,3,4-tetrahydroisoquinoline-(3S)-carboxamide] |  |  |  |  | 0.60 | 72.3 | 75.9 |
| CCN(CC)Cc1ccc2c(c1)CN(C(=O)C(C)(C)C)[C@H](C(=O)Nc1cc(C)c(O)c(C)c1C)C2 [Example 133, 7-diethylaminomethyl-2-(2,2-dimethylpropionyl)-N-(4-hydroxy-2,3,5-trimethylphenyl)-1,2,3,4-tetrahydroisoquinoline-(3S)-carboxamide] |  |  |  |  | 0.48 | 65.5 |  |
| CCCN(C)Cc1ccc2c(c1)CN(C(=O)C(C)(C)C)[C@H](C(=O)Nc1cc(C)c(O)c(C)c1C)C2 [Example 136, 2-(2,2-dimethylpropionyl)-N-(4-hydroxy-2,3,5-trimethylphenyl)-7-(N-methylpropylamino)methyl-1,2,3,4-tetrahydroisoquinoline-(3S)-carboxamide] | 66.4 |  |  |  |  | 71.3 | 89.6 |
| CCCN(C)Cc1ccc2c(c1)CN(C(=O)C(C)C)[C@H](C(=O)Nc1cc(C)c(O)c(C)c1C)C2 [Example 138, N-(4-hydroxy-2,3,5-trimethylphenyl)-2-isobutyryl-7-(N-methylpropylamino)methyl-1,2,3,4-tetrahydroisoquinoline-(3S)-carboxamide] |  |  |  |  | 0.42 |  |  |
| Cc1cc(NC(=O)[C@@H]2Cc3ccc(CNCCF)cc3CN2C(=O)C(C)(C)C)c(C)c(C)c1O.Cl [Example 140, 2-(2,2-dimethylpropionyl)-7-(2-fluoroethylamino)methyl-N-(4-hydroxy-2,3,5-trimethylphenyl)-1,2,3,4-tetrahydroisoquinoline-(3S)-carboxamide hydrochloride] |  |  |  |  | 0.44 |  |  |
| Cc1cc(NC(=O)[C@@H]2Cc3ccc(CN4CC(F)C4)cc3CN2C(=O)C(C)(C)C)c(C)c(C)c1O.Cl [Example 141, 2-(2,2-dimethylpropionyl)-7-(3-fluoroazetidin-1-yl)methyl-N-(4-hydroxy-2,3,5-trimethylphenyl)-1,2,3,4-tetrahydroisoquinoline-(3S)-carboxamide hydrochloride] | 88.0 |  |  |  | 0.49 | 63.7 | 94.8 |
| COC1CN(Cc2ccc3c(c2)CN(C(=O)C(C)(C)C)[C@H](C(=O)Nc2cc(C)c(O)c(C)c2C)C3)C1.Cl [Example 143, 2-(2,2-dimethylpropionyl)-N-(4-hydroxy-2,3,5-trimethylphenyl)-7-(3-methoxyazetidin-1-yl)methyl-1,2,3,4-tetrahydroisoquinoline-(3S)-carboxamide hydrochloride] | 60.9 |  |  |  | 0.46 | 61.0 | 64.1 |
